Patent US9944927B2, “Therapeutic applications of p53 isoforms in regenerative medicine, aging and cancer” (The United States of America as Represented by the …, priority 2007, dated 2018)

Legend:
Assay type in all cases: cell-based, human
[1] = tested on: MRC-5 and WI-38 fibroblasts; test: cellular replicative lifespan (cumulative population doublings)
Protocol: (§1) For cell proliferation assay, 2.4×10^5 cells per well were plated into 12-well plates. These cells were collected and counted daily for a week using a hematocytometer. The experiments were performed at least twice and data at each time point were in triplicate. For examining cellular replicative lifespan, the number of cells was counted at each passage, and the number of population doublings (PDL) achieved between passages was determined by log2 (number of cells obtained/number of cells inoculated) (Michishita, E. et al., Mol. Biol. Cell 16:4623 (2005); Pereira-Smith, O. M. et al., Somatic Cell Genet. 7:411 (1981)). […] The incorporated BrdU was detected using an anti-BrdU monoclonal antibody (Amersham Biosciences) and observed with a fluorescent microscope. […]
as §1, with “The experiments were performed at least twice and data at each time point were in triplicate.” left out, “inoculated)^29.” for “inoculated) (Michishita, E. et al., Mol. Biol. Cell 16:4623 (2005); Pereira-Smith, O. M. et al., Somatic Cell Genet. 7:411 (1981)).”

hTERT/NHF cells = test: Nutlin-3A-induced senescence, SA-β-gal assay; conditions: 10 μM Nutlin-3A for 72 h
miR-34a = test: real-time qRT-PCR of miR-34a expression; conditions: for miR-34a expression at Δ133p53 knockdown-induced senescence: siRNA-transfected MRC-5 and WI-38
Protocol: (§2) RNA samples were prepared by using Trizol (Invitrogen). Reverse transcriptase reactions were performed using TagMan miRNA reverse transcription kit (Applied Biosystems, cat. no. 4366596) and a miR-34a-specific primer. The TagMan miRNA assay kit for miR-34a (Applied Biosystems, cat. no. 4373278) was used according to the supplier's protocol. Real-time PCR reactions were performed in triplicate. RNU66 (Applied Biosystems, cat. no. 4373382) was used as a control for quantification. Based on Ct (cycle threshold) values from miR-34a and RNU66 detections, normalized miR-34a expression was calculated by using the […] method according to the supplier's protocol (protocol no. 4310255B and User Bulletin no. 4303859B found on the world wide web at appliedbiosystems.com/index.cfm).
as §2, with “TaqMan microRNA” for “TagMan miRNA”

p21^WAF1 and MDM2 = test: immunoblot of p53 transcriptional targets p21WAF1 and MDM2; conditions: siRNA-transfected early-passage MRC-5 and WI-38, day 7
Protocol: Cells were lysed in RIPA buffer [10 mM Tris-HCl, pH 7.5, 150 mM NaCl, 0.1% SDS, 0.1% sodium deoxycholate, 1 mM EDTA, 1% NP-40, complete protease inhibitors (Roche), phosphatase inhibitor cocktail 1 and 2 (Sigma)]. Lysates were separated by SDS-PAGE and transferred to nitrocellulose membranes (BIO-RAD) Immunoblot analysis was accomplished according to standard procedures using ECL detection (Amersham Bioscience) or SuperSignal West Dura Extended Duration system (PIERCE).
A polyclonal antibody specifically recognizing Δ133p53 (MAP4) was raised at Moravian Biotechnology (Brno, Czech Republic) in rabbits injected with a mixture of peptides MFCQLAKTC (SEQ ID NO:13) and FCQLAKTCP (SEQ ID NO:14), which were synthesized as Multiple Antigenic Peptide by G. Bloomberg (University of Bristol, Bristol, UK). […]
Cells or tissues were lysed in RIPA buffer [10 mM Tris-HCl, pH 7.5, 150 mM NaCl, 0.1% SDS, 0.1% sodium deoxycholate, 1 mM EDTA, 1% NP-40, complete protease inhibitors (Roche, Indianapolis, Ind.), phoshatase inhibitor cocktail 1 and 2 (Sigma-Aldrich)]. […] The quantitative analysis of the immunoblot data was performed using the ImageJ 1.40 g software (on the world wide web at rsb.info.nih.gov/ij/). […]

PAI-1 = test: real-time qRT-PCR of PAI-1 mRNA; conditions: siRNA-transfected early-passage WI-38, day 7
Description: For quantitative measurement of PAI-1 mRNA, the SYBR Green PCR Master Mix (Applied Biosystems) was used with the following primers: 5′-CTC CTG GTT CTG CCC AAG T-3′ (SEQ ID NO:15) and 5′-CAGGTTCTCTAGGGGCTTCC-3′ (SEQ ID NO:16) for PAI-1; and 5′-TTC TGG CCT GGA GGC TAT C-3′ (SEQ ID NO:17) and 5′-TCAGGAAATTTGACTTTCCATTC-3′ (SEQ ID NO:18) for β-2 microglobulin as an internal control. For IL-8 and IL-8R, the Taqman Universal PCR Master Mix (Applied Biosystems) was used with the following sets of probe and primers purchased from Applied Biosystems: IL-8 (catalog #4331182, Hs00174103_m1); IL-8R (catalog #4331182, Hs001174304_m1); and 18S endogenous control (catalog #4319413).

[2] = tested on: MRC-5 and WI-38 fibroblasts; test: cellular senescence: senescent growth arrest, SA-β-gal staining; conditions: siRNA-transfected early-passage MRC-5 and WI-38, day 7
caspase-3 and PARP = test: apoptosis immunoblot of caspase-3 and PARP; conditions: for cleaved caspase-3 or PARP (apoptosis): siRNA-transfected MRC-5 and WI-38
Protocol: Cells or tissues were lysed in RIPA buffer [10 mM Tris-HCl, pH 7.5, 150 mM NaCl, 0.1% SDS, 0.1% sodium deoxycholate, 1 mM EDTA, 1% NP-40, complete protease inhibitors (Roche, Indianapolis, Ind.), phoshatase inhibitor cocktail 1 and 2 (Sigma-Aldrich)]. SDS-PAGE, transfer to nitrocellulose or PVDF membranes (Bio-Rad, Hercules, Calif.), incubation with antibodies, and signal detection followed the standard procedures using ECL detection (Amersham Biosciences, Piscataway, N.J.) or SuperSignal West Dura Extended Duration system (Pierce Biotechnology, Rockford, Ill.). The quantitative analysis of the immunoblot data was performed using the ImageJ 1.40 g software (on the world wide web at rsb.info.nih.gov/ij/).
A polyclonal antibody specifically recognizing Δ133p53 (MAP4) was raised at Moravian Biotechnology (Brno, Czech Republic) in rabbits injected with a mixture of peptides, MFCQLAKTC (SEQ ID NO:13) and FCQLAKTCP (SEQ ID NO: 14), which were synthesized as Multiple Antigenic Peptide by Dr. G. Bloomberg (University of Bristol, Bristol, UK). The other primary antibodies used were: TLQ40^5 for p53β; CM1^5, DO-12 (Millipore, Billerica, Mass.) and DO-1 (Santa Cruz Biotechnology, Santa Cruz, Calif.) for p53; EA10 (Carbiochem, San Diego, Calif.) for p21^WAF1; SMP14 (Santa Cruz Biotechnology) for MDM2; 8G10 (Cell Signaling Technology, Danvers, Mass.) for caspase-3; M2 monoclonal antibody (Sigma-Aldrich) for FLAG tag; AC-15 (Sigma-Aldrich) for β-actin; MAB3450 (Chemicon International, Temecula, Calif.) for HP1-γ; anti-phospho-p53 (Ser15) (Cell Signaling Technology); anti-PARP (Cell Signaling Technology); FITC-conjugated anti-CD8 (BD Biosciences, Franklin Lakes, N.J.); APC-conjugated anti-CD28 (BD Biosciences); and PE-conjugated anti-CD57 (Abcam, Cambridge, Mass.). Horseradish peroxidase-conjugated goat anti-mouse or anti-rabbit antibodies (Santa Cruz Biotechnology) were used as secondary antibodies in immunoblots.

[3] = tested on: MRC-5 and WI-38 fibroblasts; test: BrdU incorporation assay; conditions: siRNA-transfected early-passage MRC-5 and WI-38, day 7; 10 μM BrdU 24 h
Protocol: as §1
as §1, with “The experiments were performed at least twice and data at each time point were in triplicate.” left out, “inoculated)^29.” for “inoculated) (Michishita, E. et al., Mol. Biol. Cell 16:4623 (2005); Pereira-Smith, O. M. et al., Somatic Cell Genet. 7:411 (1981)).”

| Compound | p21^WAF1 expression (p21^WAF1 and MDM2) | PAI-1 expression (PAI-1) | SA-β-gal activity [2] | cleaved caspase-3 or PARP (apoptosis) (caspase-3 and PARP) | BrdU incorporation [3] | miR-34a expression at Δ133p53 knockdown-induced senescence (miR-34a) | other results |
| --- | --- | --- | --- | --- | --- | --- | --- |
| 5′-AACAACCAGCUAAGACACUGCCA-3′ (antisense AACAACCAGCUAAGACACUGCCA; all 2'-O-methyl, backbone not given here) [antisense miR-34a] |  |  |  |  |  |  | replicative lifespan ([1]; late-passage MRC-5, antisense 40 nM transfected every 4 days): extended the replicative lifespan; extension of replicative lifespan ([1]; late-passage MRC-5 at passage 58, antisense transfected every 4 days): approximately five; inhibition of Nutlin-3A-induced senescence (hTERT/NHF cells): approximately 50%; miR-34a expression after antisense transfection (miR-34a; late-passage MRC-5, antisense 40 nM): downregulation of miR-34a expression was confirmed |
| 5′-CUU GUG CCC UGA CUU UCA A[dT][dT]-3′ [Δ133si-2] | upregulation of p21^WAF1 | upregulation | induction of SA-β-gal activity | No cleaved caspase-3 or PARP was observed | attenuation of BrdU incorporation | not upregulated |  |
| 5′-UGUUCACUUGUGCCCUGACUUUCAA-3′ [Δ133si-1] | upregulation of p21^WAF1 | upregulation | induction of SA-β-gal activity | No cleaved caspase-3 or PARP was observed | attenuation of BrdU incorporation | not upregulated |  |
| COc1ccc(C2=N[C@@H](c3ccc(Cl)cc3)[C@@H](c3ccc(Cl)cc3)N2C(=O)N2CCNC(=O)C2)c(OC(C)C)c1 [Nutlin-3a, reference compound] |  |  |  |  |  |  | miR-34a expression (miR-34a; hTERT/NHF cells, p53 shRNA, or 10 μM Nutlin-3a for 36 h): induced |
| COc1cccc2c1C(=O)c1c(O)c3c(c(O)c1C2=O)C[C@@](O)(C(=O)CO)C[C@@H]3O[C@H]1C[C@H](N)[C@H](O)[C@H](C)O1 [doxorubicin, reference compound] |  |  |  |  |  |  | apoptosis (caspase-3, PARP immunoblot) (caspase-3 and PARP; RKO cells, positive control): showing apoptosis |
